Measured values taken from patent US9725434B2, “Hydroxy-substituted orexin receptor antagonists” (MERCK SHARP & DOHME CORP., priority 2013, dated 2017).

Columns and labels:
[1] = biological target: human orexin-2 receptor (hOX2R) (Homo sapiens (Human), UniProt O43614); experiment: FLIPR Ca2+ Flux Assay, hOX2R; type: cell-based; settings: CHO cells expressing hOX2R; agonist 70 pM Ala-6,12 orexin-A
Protocol: In a typical experiment the OX1 and OX2 receptor antagonistic activity of the compounds of the present invention was determined in accordance with the following experimental method. For intracellular calcium measurements, Chinese hamster ovary (CHO) cells expressing the rat orexin-1 receptor or the human orexin-2 receptor, are grown in Iscove's modified DMEM containing 2 mM L-glutamine, […], 1% hypoxanthine-thymidine supplement, 100 U/ml penicillin, 100 μg/ml streptomycin and 10% heat-inactivated fetal calf serum (FCS). The cells are seeded at 20,000 cells/well into Becton-Dickinson black 384-well clear bottom sterile plates coated with poly-D-lysine. All reagents were from GIBCO-Invitrogen Corp. The seeded plates are incubated overnight at 37° C. and 5% CO2. Ala-6,12 human orexin-A as the agonist is prepared as a 1 mM stock solution in 1% bovine serum albumin (BSA) and diluted in assay buffer (HBSS containing 20 mM HEPES, 0.1% BSA and 2.5 mM probenecid, pH7.4) for use in the assay at a final concentration of 70 pM. Test compounds are prepared as 10 mM stock solution in DMSO, then diluted in 384-well plates, first in DMSO, then assay buffer. On the day of the assay, cells are washed 3 times with 100 μl assay buffer and then incubated for 60 min (37° C., 5% CO2) in 60 μl assay buffer containing 1 μM Fluo-4AM ester, 0.02% pluronic acid, and 1% BSA. The dye loading solution is then aspirated and cells are washed 3 times with 100 μl assay buffer. 30 μl of that same buffer is left in each well. Within the Fluorescent Imaging Plate Reader (FLIPR, Molecular Devices), test compounds are added to the plate in a volume of 25 μl, incubated for 5 min and finally 25 μl of agonist is added. Fluorescence is measured for each well at 1 second intervals for 5 minutes and the height of each fluorescence peak is compared to the height of the fluorescence peak induced by 70 pM Ala-6,12 orexin-A with buffer in place of antagonist. […] Alternatively, compound potency can be assessed by a radioligand binding assay (described in Bergman et. al. Bioorg. Med. Chem. Lett. 2008, 18, 1425-1430) in which the inhibition constant (Ki) is determined in membranes prepared from CHO cells expressing either the OX1 or OX2 receptor. The intrinsic orexin receptor antagonist activity of a compound which may be used in the present invention may be determined by these assays.
(§1) Chinese hamster ovary (CHO) cells expressing the human orexin-1 receptor (hOX1R) or the human orexin-2 receptor (hOX2R) were grown in Iscove's modified DMEM containing 2 mM L-glutamine, […], 1% hypoxanthine-thymidine supplement, 100 U/ml penicillin, 100 μg/ml streptomycin and 10% heat-inactivated fetal calf serum (FCS). The cells were seeded at 20,000 cells/well into Becton-Dickinson black 384-well clear bottom sterile plates coated with poly-D-lysine. All reagents were from GIBCO-Invitrogen Corp. The seeded plates were incubated overnight at 37° C. and 5% CO2. Ala-6,12 human orexin-A, used as the agonist, was prepared as a 1 mM stock solution in 1% bovine serum albumin (BSA) and diluted in assay buffer (HBSS containing 20 mM HEPES, 0.1% BSA and 2.5 mM probenecid, pH7.4) for use in the assay at a final concentration of 70 pM. Test compounds were prepared as 10 mM stock solution in DMSO, then diluted in 384-well plates, first in DMSO, then assay buffer.
On the day of the assay, cells were washed 3× with 100 μl assay buffer and then incubated for 60 minutes (37° C., 5% CO2) in 60 μl assay buffer containing 1 μM Fluo-4AM ester, 0.02% pluronic acid, and 1% BSA. The dye loading solution was then aspirated and cells were washed 3× with 100 μl assay buffer.

[2] = biological target: human orexin-1 receptor (hOX1R) (Homo sapiens, UniProt O43613); experiment: FLIPR Ca2+ Flux Assay, hOX1R; type: cell-based; settings: CHO cells expressing hOX1R; agonist 70 pM Ala-6,12 orexin-A
Protocol: as §1
On the day of the assay, cells were washed 3× with 100 μl assay buffer and then incubated for 60 minutes (37° C., 5% CO2) in 60 μl assay buffer containing 1 μM Fluo-4AM ester, 0.02% pluronic acid, and 1% BSA. The dye loading solution was then aspirated and cells were washed 3× with 100 μl assay buffer. 30 μl of that same buffer was left in each well. Within the Fluorescent Imaging Plate Reader (FLIPR, Molecular Devices), test compounds were added to the plate in a volume of 25 μl, incubated for 5 minutes, and then 25 μl of agonist was added. Fluorescence was measured for each well at 1 second intervals for 5 minutes, and the height of each fluorescence peak was compared to the height of the fluorescence peak induced by 70 pM of Ala-6,12 orexin-A with buffer in place of test compound.

Chain of human orexin-2 receptor (hOX2R) (O43614 whole entry): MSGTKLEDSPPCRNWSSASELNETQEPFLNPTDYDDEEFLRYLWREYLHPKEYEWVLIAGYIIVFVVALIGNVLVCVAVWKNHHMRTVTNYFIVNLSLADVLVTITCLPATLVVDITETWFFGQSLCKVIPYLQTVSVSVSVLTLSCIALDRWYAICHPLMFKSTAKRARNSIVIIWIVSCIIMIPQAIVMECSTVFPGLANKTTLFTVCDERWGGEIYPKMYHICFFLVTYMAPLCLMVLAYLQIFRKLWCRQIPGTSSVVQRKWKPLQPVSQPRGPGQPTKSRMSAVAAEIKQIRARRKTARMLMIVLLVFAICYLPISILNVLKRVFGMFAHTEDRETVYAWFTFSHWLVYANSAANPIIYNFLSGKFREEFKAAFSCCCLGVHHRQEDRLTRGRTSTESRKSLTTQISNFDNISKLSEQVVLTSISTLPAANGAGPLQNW

| Molecule | IC50 [1] | IC50 [2] |
| --- | --- | --- |
| C[C@@H]1CC[C@@H](Oc2cccc3c2CCC[C@]3(C)O)CN1C(=O)c1ccccc1-n1nccn1 [Example 30, (1S)-1-methyl-5-{[(3R,6R)-6-methyl-1-{[2-(2H-1,2,3-triazol-2-yl)phenyl]carbonyl}piperidin-3-yl]oxy}-1,2,3,4-tetrahydronaphthalen-1-ol] | 0.02 µM | 0.289 µM |
| C[C@@H]1CC[C@@H](Oc2cccc(C(C)(O)C3CC3)c2)CN1C(=O)c1ccccc1-n1nccn1 (stereo partly drawn) [Example 15, 1-Cyclopropyl-1-(3-{[(3R,6R)-6-methyl-1-{[2-(2H-1,2,3-triazol-2-yl)phenyl]carbonyl}-piperidin-3-yl]oxy}phenyl)ethanol] | 0.036 µM | 2.1 µM |
| C[C@@H]1CC[C@@H](Oc2cccc(C(C)(O)C(F)F)c2)CN1C(=O)c1ccccc1-n1nccn1 (stereo partly drawn) [Example 36, 1,1-difluoro-2-(3-{[(3R,6R)-6-methyl-1-{[2-(2H-1,2,3-triazol-2-yl)phenyl]carbonyl}piperidin-3-yl]oxy}phenyl)propan-2-ol] | 0.018 µM | 7.28 µM |
| C[C@@H]1CC[C@@H](Oc2cccc(C(C)(C)O)c2)CN1C(=O)c1ccsc1-n1nccn1 [Example 37, 2-(3-{[(3R,6R)-6-Methyl-1-{[2-(2H-1,2,3-triazol-2-yl)thiophen-3-yl]carbonyl}piperidin-3-yl]oxy}phenyl)propan-2-ol] | 0.045 µM | 10 µM |
| (1R)-6-{[(3R,6R)-6-Methyl-1-{[2-(2H-1,2,3-triazol-2-yl)phenyl]carbonyl}piperidin-3-yl]oxy}-2,3-dihydro-1H-inden-1-ol [Example 27] | – | 1.34 µM |
| (1S)-6-{[(3R,6R)-6-Methyl-1-{[2-(2H-1,2,3-triazol-2-yl)phenyl]carbonyl}piperidin-3-yl]oxy}-2,3-dihydro-1H-inden-1-ol [Example 28] | – | 10 µM |
| C[C@@H]1CC[C@@H](Oc2cc(C(C)(C)O)ccc2F)CN1C(=O)c1ccccc1-n1nccn1 [Example 20, 2-(4-Fluoro-3-{[(3R,6R)-6-methyl-1-{[2-(2H-1,2,3-triazol-2-yl)phenyl]carbonyl}piperidin-3-yl]oxy}phenyl)propan-2-ol] | 0.354 µM | 10 µM |
| CC(O)c1cccc(O[C@@H]2CC[C@@H](C)N(C(=O)c3ccccc3-n3nccn3)C2)c1 (stereo partly drawn) [Example 1, 1-(3-{[(3R,6R)-6-Methyl-1-{[2-(2H-1,2,3-triazol-2-yl)phenyl]carbonyl}piperidin-3-yl]oxy}phenyl)ethanol] | 0.098 µM | 4.51 µM |
| C[C@@H]1CC[C@@H](Oc2cc(C(C)(C)O)ccn2)CN1C(=O)c1ccccc1-n1nccn1 [Example 4, 2-(2-{[(3R,6R)-6-Methyl-1-{[2-(2H-1,2,3-triazol-2-yl)phenyl]carbonyl}piperidin-3-yl]oxy}pyridin-4-yl)propan-2-ol] | 0.02 µM | 0.996 µM |
| C[C@@H]1CC[C@@H](Oc2cc(C3(O)CCC3)ccn2)CN1C(=O)c1ccccc1-n1nccn1 [Example 8, 1-(2-{[(3R,6R)-6-methyl-1-{[2-(2H-1,2,3-triazol-2-yl)phenyl]carbonyl}piperidin-3-yl]oxy}pyridin-4-yl)cyclobutanol] | 0.041 µM | 1.52 µM |
| C[C@@H]1CC[C@@H](Oc2cccc(C(C)(O)C3CCCC3)c2)CN1C(=O)c1ccccc1-n1nccn1 (stereo partly drawn) [Example 16, 1-Cyclopentyl-1-(3-{[(3R,6R)-6-methyl-1-{[2-(2H-1,2,3-triazol-2-yl)phenyl]carbonyl}-piperidin-3-yl]oxy}phenyl)ethanol] | 0.086 µM | 3.42 µM |
| C[C@@H]1CC[C@@H](Oc2ccc3c(c2)C(O)CC3)CN1C(=O)c1ccccc1-n1nccn1 (stereo partly drawn) [Example 24, 6-{[(3R,6R)-6-Methyl-1-{[2-(2H-1,2,3-triazol-2-yl)phenyl]carbonyl}piperidin-3-yl]oxy}-2,3-dihydro-1H-inden-1-ol] | – | 2.07 µM |
